Measurements as given in patent US20240124504A1, “AROMATIC HETEROCYCLIC COMPOUND, AND PHARMACEUTICAL COMPOSITION AND APPLICATION THEREOF” (GT APEIRON THERAPEUTICS LIMITED, priority 2020, published 2024).

What was measured:
[1] = molecular target: CDK7/cyclinH/MAT1 complex (Homo sapiens, UniProt P50613); experiment: In-vitro enzymatic inhibitory activity testing, CDK7 inhibition assay (Caliper EZ Reader II); format: biochemical; conditions: CDK7/cyclinH/MAT1 6 nM, 180 min at 27° C.
In short: (§1)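 Enzyme preincubated 10 min with compound, then peptide substrate plus ATP added in 80 mM MES pH 6.5, 10 mM MgCl2 buffer; 180 min at 27 °C, stopped with EDTA.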

CDK2/cyclinE1 complex = CDK2/cyclinE1 complex (Homo sapiens, UniProt P24941); experiment: In-vitro enzymatic inhibitory activity testing, CDK2 inhibition assay (Caliper EZ Reader II); format: biochemical; conditions: CDK2/cyclinE1 0.5 nM, 180 min at 27° C.
In short: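 CDK2/cyclinE1 (0.5 nM) phosphorylated 5-FAM-CDK7tide (2 μM) in MES buffer pH 6.5 with MgCl2, Tween 20 and BSA. Substrate and product were separated electrophoretically on a Caliper EZ Reader II. IC50 values came from nonlinear dose-response fits.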

CDK9/cyclinT1 complex = CDK9/cyclinT1 complex (Homo sapiens, UniProt P50750); experiment: In-vitro enzymatic inhibitory activity testing, CDK9 inhibition assay (Caliper EZ Reader II); format: biochemical; conditions: CDK9/cyclinT1 8 nM, 180 min at 27° C.
Sequence of CDK9/cyclinT1 complex (P50750 whole entry, species assumed): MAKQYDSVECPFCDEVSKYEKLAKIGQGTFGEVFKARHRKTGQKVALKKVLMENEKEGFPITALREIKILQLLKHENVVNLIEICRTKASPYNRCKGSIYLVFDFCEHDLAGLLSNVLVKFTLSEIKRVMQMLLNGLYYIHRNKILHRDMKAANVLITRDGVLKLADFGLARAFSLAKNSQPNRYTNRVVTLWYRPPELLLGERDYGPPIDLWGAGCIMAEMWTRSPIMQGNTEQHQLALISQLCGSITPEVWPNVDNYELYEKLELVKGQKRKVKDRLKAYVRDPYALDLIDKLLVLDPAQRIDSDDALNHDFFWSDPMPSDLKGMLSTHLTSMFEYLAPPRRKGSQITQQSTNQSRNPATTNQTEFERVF
Sequence of CDK9/cyclinT1 complex (O60563 whole entry partner, species assumed): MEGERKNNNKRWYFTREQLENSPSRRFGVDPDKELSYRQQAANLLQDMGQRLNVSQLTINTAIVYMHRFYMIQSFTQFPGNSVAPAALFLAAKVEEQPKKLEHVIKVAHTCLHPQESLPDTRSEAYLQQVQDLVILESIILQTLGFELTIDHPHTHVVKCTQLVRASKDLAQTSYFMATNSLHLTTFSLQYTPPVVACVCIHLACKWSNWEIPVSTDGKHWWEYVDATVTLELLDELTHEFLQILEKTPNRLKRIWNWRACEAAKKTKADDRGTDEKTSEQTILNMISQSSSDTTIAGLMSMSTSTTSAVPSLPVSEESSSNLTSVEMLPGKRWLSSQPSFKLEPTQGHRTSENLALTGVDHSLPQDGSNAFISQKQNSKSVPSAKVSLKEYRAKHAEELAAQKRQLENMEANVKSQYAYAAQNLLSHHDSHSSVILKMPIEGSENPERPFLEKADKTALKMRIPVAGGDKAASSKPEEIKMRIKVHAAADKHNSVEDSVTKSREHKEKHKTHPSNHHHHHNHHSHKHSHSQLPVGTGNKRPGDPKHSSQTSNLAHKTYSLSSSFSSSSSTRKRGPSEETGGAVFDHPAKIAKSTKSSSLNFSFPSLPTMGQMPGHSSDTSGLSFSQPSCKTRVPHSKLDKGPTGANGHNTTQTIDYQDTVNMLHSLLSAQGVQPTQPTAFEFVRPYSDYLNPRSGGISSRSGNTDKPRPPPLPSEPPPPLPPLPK
In short: as §1

[2] = molecular target: T1, CDK12 (aa686-1082)/cyclinK complex (Homo sapiens, UniProt Q9NYV4); experiment: In-vitro enzymatic inhibitory activity testing, CDK12 inhibition assay (Caliper EZ Reader II); format: biochemical; conditions: CDK12/cyclinK 50 nM, 180 min at 27° C.; read-out: CDK12 IC50
T1 construct: A CDK12 (aa686-1082)/cyclinK complex (50 nM)
T1 sequence (Q9NYV4 686-1082, species assumed): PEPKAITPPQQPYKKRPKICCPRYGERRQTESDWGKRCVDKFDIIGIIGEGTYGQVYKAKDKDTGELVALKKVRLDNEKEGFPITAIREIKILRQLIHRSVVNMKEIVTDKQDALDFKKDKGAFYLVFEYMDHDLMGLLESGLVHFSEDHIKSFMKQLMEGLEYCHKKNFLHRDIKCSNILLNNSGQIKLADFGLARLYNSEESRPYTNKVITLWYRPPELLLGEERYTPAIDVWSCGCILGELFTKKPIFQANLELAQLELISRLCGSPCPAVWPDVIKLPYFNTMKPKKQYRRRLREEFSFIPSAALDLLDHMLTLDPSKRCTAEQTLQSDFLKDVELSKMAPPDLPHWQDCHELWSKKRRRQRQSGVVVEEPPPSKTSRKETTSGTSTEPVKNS
T1 sequence (O75909 whole entry partner, species assumed, the tested form may be a part): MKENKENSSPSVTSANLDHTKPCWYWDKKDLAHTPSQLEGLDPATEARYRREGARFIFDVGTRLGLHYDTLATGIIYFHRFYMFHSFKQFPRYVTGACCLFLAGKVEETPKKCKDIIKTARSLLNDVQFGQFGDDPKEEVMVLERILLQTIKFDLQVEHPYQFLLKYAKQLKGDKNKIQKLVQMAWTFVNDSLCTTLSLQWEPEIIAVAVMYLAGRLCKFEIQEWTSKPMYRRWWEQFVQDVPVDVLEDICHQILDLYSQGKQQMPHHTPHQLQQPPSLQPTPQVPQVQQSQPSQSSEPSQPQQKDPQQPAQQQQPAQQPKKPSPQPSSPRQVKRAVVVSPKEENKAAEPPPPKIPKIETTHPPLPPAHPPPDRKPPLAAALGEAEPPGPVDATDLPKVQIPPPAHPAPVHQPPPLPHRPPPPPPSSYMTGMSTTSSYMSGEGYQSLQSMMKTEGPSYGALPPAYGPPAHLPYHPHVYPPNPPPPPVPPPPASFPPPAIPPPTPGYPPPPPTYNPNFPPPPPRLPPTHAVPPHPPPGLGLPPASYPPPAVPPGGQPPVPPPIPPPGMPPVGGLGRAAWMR
In short: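 Caliper EZ Reader II mobility-shift separation of 5-FAM-CDK9tide substrate (2 μM) from phosphoproduct, using 50 nM CDK12 (aa686-1082)/cyclinK in 80 mM MES pH 6.5, 10 mM MgCl2, 0.01% Tween 20, 50 ug/mL BSA. Compound pre-incubated 10 min with enzyme, then substrate/ATP added for 180 min at 27° C; EDTA stop. IC50 by nonlinear dose-response regression.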

[3] = test system: human breast cancer cells HCC70; experiment: Cell biological activity detection (CyQuant, 72 hours), HCC70; format: cell-based; conditions: Homo sapiens, HCC70, 72 h, incubation for 72 hours
In short: (§2)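 A2780 and HCC70 cells seeded at 2000/well in RPMI 1640 + 10% FBS, treated next day with 9-point compound dilutions (top 10 μM, 1:4; 0.2% DMSO) for 72 h at 37 °C. Cell number read by CyQuant Direct nucleic acid stain (ex 488 nm); IC50 from dose–response fit.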

ovarian cancer A2780 = experiment: Cell biological activity detection (CyQuant, 72 hours), A2780; format: cell-based, human; conditions: Homo sapiens, A2780, 72 h, A2780 cells, incubation for 72 hours
In short: as §2

Sequence of CDK7/cyclinH/MAT1 complex (P50613 whole entry, species assumed): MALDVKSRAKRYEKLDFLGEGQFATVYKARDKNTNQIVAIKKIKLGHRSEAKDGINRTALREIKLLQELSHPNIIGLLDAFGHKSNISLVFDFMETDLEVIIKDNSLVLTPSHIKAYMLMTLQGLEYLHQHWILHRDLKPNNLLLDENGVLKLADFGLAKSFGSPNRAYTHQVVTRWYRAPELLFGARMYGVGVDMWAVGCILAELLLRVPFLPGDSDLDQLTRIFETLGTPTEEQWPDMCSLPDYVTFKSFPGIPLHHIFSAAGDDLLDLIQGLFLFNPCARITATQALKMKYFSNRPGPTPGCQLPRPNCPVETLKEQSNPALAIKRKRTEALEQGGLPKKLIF
Sequence of CDK7/cyclinH/MAT1 complex (P51946 whole entry partner, species assumed): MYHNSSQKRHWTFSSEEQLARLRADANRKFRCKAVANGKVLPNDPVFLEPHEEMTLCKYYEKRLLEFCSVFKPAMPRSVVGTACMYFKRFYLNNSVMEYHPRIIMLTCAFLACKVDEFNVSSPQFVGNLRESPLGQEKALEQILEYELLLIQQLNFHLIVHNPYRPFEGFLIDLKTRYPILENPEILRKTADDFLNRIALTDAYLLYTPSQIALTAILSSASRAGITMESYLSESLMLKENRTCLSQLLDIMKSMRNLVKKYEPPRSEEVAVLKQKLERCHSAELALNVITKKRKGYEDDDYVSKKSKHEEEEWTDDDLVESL
Sequence of CDK7/cyclinH/MAT1 complex (P51948 whole entry partner, species assumed): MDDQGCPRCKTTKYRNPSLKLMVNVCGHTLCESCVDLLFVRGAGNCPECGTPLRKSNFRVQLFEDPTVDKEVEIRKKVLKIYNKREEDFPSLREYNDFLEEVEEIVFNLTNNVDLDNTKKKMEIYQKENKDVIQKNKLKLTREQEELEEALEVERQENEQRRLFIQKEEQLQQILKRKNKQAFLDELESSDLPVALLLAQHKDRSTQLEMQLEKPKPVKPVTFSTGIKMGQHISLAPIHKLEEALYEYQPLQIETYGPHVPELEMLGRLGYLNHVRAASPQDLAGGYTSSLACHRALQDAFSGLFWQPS

Row | Compound | IC50 [1] | IC50 (CDK2/cyclinE1 complex) | IC50 (CDK9/cyclinT1 complex) | IC50 [2] | IC50 (ovarian cancer A2780) | IC50 [3]
1 | CC(C)C(O)CNc1ncc(C(F)(F)F)c(-c2c[nH]c3c(P(C)(C)=O)cccc23)n1 (stereo not drawn) [Compound 162, (3-(2-((2-hydroxy-3-methylbutyl)amino)-5-(trifluoromethyl)pyrimidin-4-yl)-1H-indole-7-yl)dimethylphosphine oxide] | 20 to 200 nM | 5000 to 50000 nM | > 50000 nM | > 50000 nM | 20 to 200 nM | 200 to 5000 nM
2 | C[C@H](Nc1ncc(C(F)(F)F)c(-c2c[nH]c3c(P(C)(C)=O)cccc23)n1)C(C)(C)O [Compound 163, (S)-(3-(2-((3-hydroxy-3-methylbutan-2-yl)amino)-5-(trifluoromethyl)pyrimidin-4-yl)-1H-indole-7-yl)dimethylphosphine oxide] | 20 to 200 nM | 5000 to 50000 nM | > 50000 nM | > 50000 nM | 20 to 200 nM | 200 to 5000 nM
3 | CP(C)(=O)c1cccc2c(-c3nc(NCC4(O)CC4)ncc3C(F)(F)F)c[nH]c12 [Compound 164] | < 20 nM | 5000 to 50000 nM | > 50000 nM | > 50000 nM | 20 to 200 nM | 20 to 200 nM
4 | C[C@H](O)CNc1ncc(C(F)(F)F)c(-c2c[nH]c3c(P(C)(C)=O)cccc23)n1 [Compound 173, (S)-(3-(2-((2-hydroxypropyl)amino)-5-(trifluoromethyl)pyrimidin-4-yl)-1H-indole-7-yl)dimethylphosphine oxide] | < 20 nM | 5000 to 50000 nM | > 50000 nM | > 50000 nM | 20 to 200 nM | 20 to 200 nM
5 | CP(C)(=O)c1cccc2c(-c3nc(NCC4(O)CCOCC4)ncc3C(F)(F)F)c[nH]c12 [Compound 175] | 20 to 200 nM | 5000 to 50000 nM | > 50000 nM | > 50000 nM | 200 to 5000 nM | 20 to 200 nM

The next lines start with results.

Row | IC50 [1] | IC50 (CDK2/cyclinE1 complex) | IC50 (CDK9/cyclinT1 complex) | IC50 [2] | IC50 (ovarian cancer A2780) | Compound | IC50 [3]
6 | < 20 nM | 5000 to 50000 nM | > 50000 nM | > 50000 nM | 200 to 5000 nM | CC[C@](C)(CO)Nc1ncc(C(F)(F)F)c(-c2c[nH]c3c(P(C)(C)=O)cccc23)n1 [Compound 161, (R)-(3-(2-((1-hydroxy-2-methylbutan-2-yl)amino)-5-(trifluoromethyl)pyrimidin-4-yl)-1H-indole-7-yl)dimethylphosphine oxide] | 200 to 5000 nM
7 | 20 to 200 nM | 5000 to 50000 nM | > 50000 nM | > 50000 nM | 20 to 200 nM | CP(C)(=O)c1cccc2c(-c3nc(N[C@H]4CCCC[C@@H]4O)ncc3C(F)(F)F)c[nH]c12 [Compound 165, (3-(2-(((1S,2S)-2-hydroxycyclohexyl)amino)-5-(trifluoromethyl)pyrimidin-4-yl)-1H-indole-7-yl)dimethylphosphine oxide] | 20 to 200 nM
8 | 20 to 200 nM | > 50000 nM | > 50000 nM | > 50000 nM | 200 to 5000 nM | CP(C)(=O)c1cccc2c(-c3nc(NC4(CO)CCOCC4)ncc3C(F)(F)F)c[nH]c12 [Compound 166, (3-(2-((4-(hydroxymethyl)tetrahydro-2H-pyran-4-yl)amino)-5-(trifluoromethyl)pyrimidin-4-yl)-1H-indole-7-yl)dimethylphosphine oxide] | 200 to 5000 nM
9 | 20 to 200 nM | > 50000 nM | > 50000 nM | > 50000 nM | 200 to 5000 nM | CP(C)(=O)c1cccc2c(-c3nc(N[C@@H]4COCC[C@H]4O)ncc3C(F)(F)F)c[nH]c12 [Compound 167] | 200 to 5000 nM
10 | 20 to 200 nM | 200 to 5000 nM | > 50000 nM | > 50000 nM | 20 to 200 nM | C[C@@H](O)CNc1ncc(C(F)(F)F)c(-c2c[nH]c3c(P(C)(C)=O)cccc23)n1 [Compound 172, (R)-(3-(2-((2-hydroxypropyl)amino)-5-(trifluoromethyl)pyrimidin-4-yl)-1H-indole-7-yl)dimethylphosphine oxide] | 20 to 200 nM
